Values of other authors in patent publication US20090226517A1, “PHARMACEUTICAL FORMULATIONS COMPRISING DULOXETINE” (priority 2008, published 2009).

Conditions: background statement; limited aqueous solubility

For `CNCC[C@H](Oc1cccc2ccccc12)c1cccs1` [Duloxetine], the BCS class is given as “BCS class II”.
